Data from patent US10954219B2, “1,3-benzodioxole derivative” (DAIICHI SANKYO COMPANY, LIMITED, priority 2014, dated 2021).
Where a name gives a salt, the structure may show the parent alone.

Legend:
PRC2-EZH1 (WT EZH1) = PRC2-EZH1 (WT EZH1) (Homo sapiens, UniProt Q92800); assay: EZH1 methyltransferase inhibitory activity evaluation
[1] = test system: Intracellular H3K27me3 in HCT116 cells; assay: Intracellular H3K27me3 inhibitory activity evaluation; type: cell-based; settings: Homo sapiens, HCT-116, 72 h, 3 days, AlphaLISA, read-out: Test Example 3 H3K27me3 inhibition (HCT116) IC50
PRC2-EZH2 (WT EZH2) = target: T1, PRC2-EZH2 (WT EZH2) (Homo sapiens, UniProt Q15910); assay: EZH2 methyltransferase inhibitory activity evaluation; type: biochemical; settings: PRC2-EZH2, biotin-H3 peptide, 3H-SAM, 2 hours
T1 construct: made in house
T1 sequence (Q15910 whole entry): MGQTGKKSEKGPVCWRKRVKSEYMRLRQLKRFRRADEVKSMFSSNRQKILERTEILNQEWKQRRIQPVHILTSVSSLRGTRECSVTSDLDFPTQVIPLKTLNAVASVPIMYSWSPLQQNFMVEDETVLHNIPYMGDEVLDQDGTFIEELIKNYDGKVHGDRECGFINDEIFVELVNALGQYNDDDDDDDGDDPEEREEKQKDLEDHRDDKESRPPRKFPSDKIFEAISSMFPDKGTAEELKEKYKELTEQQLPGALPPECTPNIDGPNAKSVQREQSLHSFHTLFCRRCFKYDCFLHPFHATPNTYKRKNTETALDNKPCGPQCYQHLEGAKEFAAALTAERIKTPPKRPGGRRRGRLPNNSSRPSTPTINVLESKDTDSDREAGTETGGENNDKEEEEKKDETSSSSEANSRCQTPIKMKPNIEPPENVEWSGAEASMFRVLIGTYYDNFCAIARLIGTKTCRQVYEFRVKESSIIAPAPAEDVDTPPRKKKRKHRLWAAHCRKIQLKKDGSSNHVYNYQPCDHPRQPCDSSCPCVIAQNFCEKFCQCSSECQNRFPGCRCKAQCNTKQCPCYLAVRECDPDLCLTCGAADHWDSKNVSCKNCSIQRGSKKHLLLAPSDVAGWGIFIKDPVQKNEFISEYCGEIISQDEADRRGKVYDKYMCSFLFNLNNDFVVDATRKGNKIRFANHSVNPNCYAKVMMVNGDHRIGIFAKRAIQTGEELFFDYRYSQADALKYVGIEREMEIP
T1 sequence (O75530 whole entry partner): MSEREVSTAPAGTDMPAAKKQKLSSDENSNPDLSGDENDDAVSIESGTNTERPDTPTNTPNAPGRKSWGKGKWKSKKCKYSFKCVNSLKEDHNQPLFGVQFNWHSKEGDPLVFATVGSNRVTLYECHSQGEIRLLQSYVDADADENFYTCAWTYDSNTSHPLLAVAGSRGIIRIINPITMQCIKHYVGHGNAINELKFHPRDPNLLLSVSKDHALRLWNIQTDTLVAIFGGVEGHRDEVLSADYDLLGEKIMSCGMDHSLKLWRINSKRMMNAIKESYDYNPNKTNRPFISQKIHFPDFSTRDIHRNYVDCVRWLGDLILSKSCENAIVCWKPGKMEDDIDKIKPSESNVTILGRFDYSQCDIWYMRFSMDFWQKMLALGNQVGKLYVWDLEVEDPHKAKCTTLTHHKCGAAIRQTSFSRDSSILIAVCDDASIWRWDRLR
T1 sequence (Q15022 whole entry partner): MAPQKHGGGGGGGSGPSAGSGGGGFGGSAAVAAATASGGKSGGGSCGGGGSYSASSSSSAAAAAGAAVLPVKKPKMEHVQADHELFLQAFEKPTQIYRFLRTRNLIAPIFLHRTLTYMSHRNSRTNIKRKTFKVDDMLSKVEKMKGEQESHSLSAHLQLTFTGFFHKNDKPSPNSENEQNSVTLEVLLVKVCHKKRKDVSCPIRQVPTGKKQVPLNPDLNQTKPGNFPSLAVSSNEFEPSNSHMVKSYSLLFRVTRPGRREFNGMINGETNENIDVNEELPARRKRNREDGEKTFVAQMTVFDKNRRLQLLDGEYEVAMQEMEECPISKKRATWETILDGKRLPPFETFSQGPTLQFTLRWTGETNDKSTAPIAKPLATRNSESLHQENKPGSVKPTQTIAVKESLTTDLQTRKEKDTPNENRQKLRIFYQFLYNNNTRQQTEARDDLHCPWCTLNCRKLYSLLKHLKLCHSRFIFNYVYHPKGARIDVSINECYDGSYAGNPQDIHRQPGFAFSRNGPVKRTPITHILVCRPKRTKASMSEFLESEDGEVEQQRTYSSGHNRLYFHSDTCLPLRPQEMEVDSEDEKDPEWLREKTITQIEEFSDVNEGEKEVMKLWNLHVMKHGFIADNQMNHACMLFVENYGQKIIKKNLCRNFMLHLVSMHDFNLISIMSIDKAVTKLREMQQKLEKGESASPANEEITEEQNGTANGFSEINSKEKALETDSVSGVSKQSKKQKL

PRC2-EZH1 (WT EZH1), sequence (Q92800 whole entry): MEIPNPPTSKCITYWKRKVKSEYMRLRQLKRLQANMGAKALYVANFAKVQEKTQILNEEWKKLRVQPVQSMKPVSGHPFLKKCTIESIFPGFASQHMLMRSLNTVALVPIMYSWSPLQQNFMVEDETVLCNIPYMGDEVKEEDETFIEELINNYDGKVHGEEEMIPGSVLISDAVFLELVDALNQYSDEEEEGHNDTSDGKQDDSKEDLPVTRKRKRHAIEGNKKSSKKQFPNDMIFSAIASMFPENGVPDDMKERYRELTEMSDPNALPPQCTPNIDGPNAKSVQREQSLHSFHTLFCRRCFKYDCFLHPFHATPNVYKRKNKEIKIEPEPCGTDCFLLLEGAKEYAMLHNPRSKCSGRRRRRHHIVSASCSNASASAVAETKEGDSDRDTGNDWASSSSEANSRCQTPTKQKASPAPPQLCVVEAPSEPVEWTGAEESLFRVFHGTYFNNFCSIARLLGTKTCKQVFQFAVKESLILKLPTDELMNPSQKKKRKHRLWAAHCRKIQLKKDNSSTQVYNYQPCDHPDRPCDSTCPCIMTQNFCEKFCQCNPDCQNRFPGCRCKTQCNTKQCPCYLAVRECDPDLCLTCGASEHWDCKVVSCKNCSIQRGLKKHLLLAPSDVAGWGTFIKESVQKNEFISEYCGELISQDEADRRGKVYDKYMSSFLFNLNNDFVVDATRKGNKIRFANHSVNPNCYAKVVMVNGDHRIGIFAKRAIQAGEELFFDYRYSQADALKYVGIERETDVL
PRC2-EZH1 (WT EZH1), sequence (O75530 whole entry partner): as the sequence (O75530 whole entry partner) above
PRC2-EZH1 (WT EZH1), sequence (Q15022 whole entry partner): as the sequence (Q15022 whole entry partner) above
PRC2-EZH1 (WT EZH1), sequence (Q09028 whole entry partner): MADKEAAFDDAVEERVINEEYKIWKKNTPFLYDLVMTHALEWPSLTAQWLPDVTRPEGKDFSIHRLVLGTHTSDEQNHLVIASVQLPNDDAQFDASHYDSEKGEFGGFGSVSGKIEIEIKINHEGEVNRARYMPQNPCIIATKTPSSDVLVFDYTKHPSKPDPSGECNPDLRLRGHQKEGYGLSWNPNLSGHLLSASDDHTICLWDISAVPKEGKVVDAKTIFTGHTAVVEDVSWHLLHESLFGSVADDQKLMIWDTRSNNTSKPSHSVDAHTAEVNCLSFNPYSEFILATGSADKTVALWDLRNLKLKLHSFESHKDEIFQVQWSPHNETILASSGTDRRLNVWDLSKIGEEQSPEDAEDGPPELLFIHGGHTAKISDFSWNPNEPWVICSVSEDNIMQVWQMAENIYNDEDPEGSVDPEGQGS
PRC2-EZH1 (WT EZH1), sequence (Q6ZN18 whole entry partner): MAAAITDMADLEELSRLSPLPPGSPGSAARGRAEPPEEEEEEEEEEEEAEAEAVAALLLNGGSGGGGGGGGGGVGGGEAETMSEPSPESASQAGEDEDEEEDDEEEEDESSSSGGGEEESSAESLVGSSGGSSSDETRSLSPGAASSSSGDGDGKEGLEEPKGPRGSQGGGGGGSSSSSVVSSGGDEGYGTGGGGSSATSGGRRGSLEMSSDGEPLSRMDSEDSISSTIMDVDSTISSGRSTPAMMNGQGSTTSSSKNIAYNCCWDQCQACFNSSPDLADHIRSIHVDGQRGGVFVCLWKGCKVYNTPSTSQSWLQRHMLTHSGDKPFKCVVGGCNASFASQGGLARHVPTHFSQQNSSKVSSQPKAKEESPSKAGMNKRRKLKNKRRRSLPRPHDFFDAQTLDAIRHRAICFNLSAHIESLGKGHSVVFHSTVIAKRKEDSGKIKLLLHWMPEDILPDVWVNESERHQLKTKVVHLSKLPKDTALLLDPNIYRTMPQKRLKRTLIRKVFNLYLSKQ

| SMILES | IC50 (PRC2-EZH1 (WT EZH1)) [nM] | IC50 [1] [nM] | IC50 (PRC2-EZH2 (WT EZH2)) [nM] |
| --- | --- | --- | --- |
| Cc1cc(C)c(CNC(=O)c2cc(Cl)c3c(c2Cl)OC(C)([C@H]2CC[C@H](N(C)C)CC2)O3)c(=O)[nH]1 (relative stereo) [Example 53, 4,7-Dichloro-2-[trans-4-(dimethylamino)cyclohexyl]-N-[(4,6-dimethyl-2-oxo-1,2-dihydropyridin-3-yl)methyl]-2-methyl-1,3-benzodioxole-5-carboxamide] | 26 | 0.63 | 13 |
| Cc1cc(C)c(CNC(=O)c2cc(C3=CCCC3)c3c(c2C)OC(C)([C@H]2CC[C@H](N(C)C)CC2)O3)c(=O)[nH]1 (relative stereo) [Example 58, 7-(Cyclopenten-1-yl)-2-[trans-4-(dimethylamino)cyclohexyl]-N-[(4,6-dimethyl-2-oxo-1,2-dihydropyridin-3-yl)methyl]-2,4-dimethyl-1,3-benzodioxole-5-carboxamide] | 4.4 | 2.9 | 10 |
| Cc1cc(C)c(CNC(=O)c2cc(-c3ccccc3)c3c(c2C)OC(C)([C@H]2CC[C@H](N(C)C)CC2)O3)c(=O)[nH]1 (relative stereo) [Example 59, 2-[trans-4-(Dimethylamino)cyclohexyl]-N-[(4,6-dimethyl-2-oxo-1,2-dihydropyridin-3-yl)methyl]-2,4-dimethyl-7-phenyl-1,3-benzodioxole-5-carboxamide] | 5.7 | 1.8 | 8.7 |
| Cc1cc(C)c(CNC(=O)c2cc(C3=CCCCC3)c3c(c2C)OC(C)([C@H]2CC[C@H](N(C)C)CC2)O3)c(=O)[nH]1 (relative stereo) [Example 60, 7-(Cyclohexen-1-yl)-2-[trans-4-(dimethylamino)cyclohexyl]-N-[(4,6-dimethyl-2-oxo-1,2-dihydropyridin-3-yl)methyl]-2,4-dimethyl-1,3-benzodioxole-5-carboxamide] | 7.3 | 3.7 | 14 |
| Cc1cc(C)c(CNC(=O)c2cc(-c3ccc(CN4CCOCC4)nc3)c3c(c2C)OC(C)([C@H]2CC[C@H](N(C)C)CC2)O3)c(=O)[nH]1 (relative stereo) [Example 63, 2-[trans-4-(Dimethylamino)cyclohexyl]-N-[(4,6-dimethyl-2-oxo-1,2-dihydropyridin-3-yl)methyl]-2,4-dimethyl-7-[6-(morpholinomethyl)-3-pyridyl]-1,3-benzodioxole-5-carboxamide] | 17 | 13 | 22 |
| Cc1cc(C)c(CNC(=O)c2cc(-c3cccnc3)c3c(c2C)OC(C)([C@H]2CC[C@H](N(C)C)CC2)O3)c(=O)[nH]1 (relative stereo) [Example 64, 2-[trans-4-(Dimethylamino)cyclohexyl]-N-[(4,6-dimethyl-2-oxo-1,2-dihydropyridin-3-yl)methyl]-2,4-dimethyl-7-(3-pyridyl)-1,3-benzodioxole-5-carboxamide] | 22 | 6.8 | 14 |
| C#Cc1cc(C(=O)NCc2c(C)cc(C)[nH]c2=O)c(C)c2c1OC(C)([C@H]1CC[C@H](N(C)C)CC1)O2 (relative stereo) [Example 67, 2-[trans-4-(Dimethylamino)cyclohexyl]-N-[(4,6-dimethyl-2-oxo-1,2-dihydropyridin-3-yl)methyl]-7-ethynyl-2,4-dimethyl-1,3-benzodioxole-5-carboxamide] | 17 | 1 | 19 |
| Cc1cc(C)c(CNC(=O)c2cc(-c3ccnc(N4CCN(C)CC4)c3)c3c(c2C)OC(C)([C@H]2CC[C@H](N(C)C)CC2)O3)c(=O)[nH]1 (relative stereo) [Example 69, 2-[trans-4-(Dimethylamino)cyclohexyl]-N-[(4,6-dimethyl-2-oxo-1,2-dihydropyridin-3-yl)methyl]-2,4-dimethyl-7-[2-(4-methylpiperazin-1-yl)-4-pyridyl]-1,3-benzodioxole-5-carboxamide] | 32 | 29 | 24 |
| Cc1cc(C)c(CNC(=O)c2cc(-c3cncs3)c3c(c2C)OC(C)([C@H]2CC[C@H](N(C)C)CC2)O3)c(=O)[nH]1 (relative stereo) [Example 70, 2-[trans-4-(Dimethylamino)cyclohexyl]-N-[(4,6-dimethyl-2-oxo-1,2-dihydropyridin-3-yl)methyl]-2,4-dimethyl-7-thiazol-5-yl-1,3-benzodioxole-5-carboxamide hydrochloride] | 38 | 4.3 | 26 |
| CC(=O)c1cc(C(=O)NCc2c(C)cc(C)[nH]c2=O)c(C)c2c1OC(C)([C@H]1CC[C@H](N(C)C)CC1)O2 (relative stereo) [Example 72, 7-Acetyl-2-[trans-4-(dimethylamino)cyclohexyl]-N-[(4,6-dimethyl-2-oxo-1,2-dihydropyridin-3-yl)methyl]-2,4-dimethyl-1,3-benzodioxole-5-carboxamide hydrochloride] | 76 | 13 | 17 |
| CCc1cc(C)[nH]c(=O)c1CNC(=O)c1cc(-c2ccc(N3CCN(CC)CC3)nc2)c2c(c1C)OC(C)([C@H]1CC[C@H](N(C)C)CC1)O2 (relative stereo) [Example 73, 2-[trans-4-(Dimethylamino)cyclohexyl]-N-[(4-ethyl-6-methyl-2-oxo-1,2-dihydropyridin-3-yl)methyl]-7-[6-(4-ethylpiperazin-1-yl)-3-pyridyl]-2,4-dimethyl-1,3-benzodioxole-5-carboxamide hydrochloride] | 12 | 6.1 | 22 |
| CCCc1cc(C)[nH]c(=O)c1CNC(=O)c1cc(-c2ccc(N3CCN(CC)CC3)nc2)c2c(c1C)OC(C)([C@H]1CC[C@H](N(C)C)CC1)O2 (relative stereo) [Example 74, 2-[trans-4-(Dimethylamino)cyclohexyl]-7-[6-(4-ethylpiperazin-1-yl)-3-pyridyl]-2,4-dimethyl-N-[(6-methyl-2-oxo-4-propyl-1,2-dihydropyridin-3-yl)methyl]-1,3-benzodioxole-5-carboxamide] | 13 | 23 | 29 |

The remaining compounds from weak to strong by IC50 (PRC2-EZH1 (WT EZH1)), led by results:

| IC50 (PRC2-EZH1 (WT EZH1)) [nM] | IC50 [1] [nM] | IC50 (PRC2-EZH2 (WT EZH2)) [nM] | SMILES |
| --- | --- | --- | --- |
| 53 | 7.1 | 20 | COc1cc(C(=O)NCc2c(C)cc(C)[nH]c2=O)c(C)c2c1OC(C)([C@H]1CC[C@H](N(C)C)CC1)O2 (relative stereo) [Example 50, 2-[trans-4-(Dimethylamino)cyclohexyl]-N-[(4,6-dimethyl-2-oxo-1,2-dihydropyridin-3-yl)methyl]-7-methoxy-2,4-dimethyl-1,3-benzodioxole-5-carboxamide] |
| 43 | 99 | 19 | Cc1cc(C)c(CNC(=O)c2cc(C3=CCN(C)CC3)c3c(c2C)OC(C)([C@H]2CC[C@H](N(C)C)CC2)O3)c(=O)[nH]1 (relative stereo) [Example 71, 2-[trans-4-(Dimethylamino)cyclohexyl]-N-[(4,6-dimethyl-2-oxo-1,2-dihydropyridin-3-yl)methyl]-2,4-dimethyl-7-(1-methyl-3,6-dihydro-2H-pyridin-4-yl)-1,3-benzodioxole-5-carboxamide] |
| 29 | 1.6 | 18 | Cc1cc(C)c(CNC(=O)c2cc(C3CC3)c3c(c2C)OC(C)([C@H]2CC[C@H](N(C)C)CC2)O3)c(=O)[nH]1 (relative stereo) [Example 68, 7-Cyclopropyl-2-[trans-4-(dimethylamino)cyclohexyl]-N-[(4,6-dimethyl-2-oxo-1,2-dihydropyridin-3-yl)methyl]-2,4-dimethyl-1,3-benzodioxole-5-carboxamide] |
| 27 | 1.7 | 22 | C=Cc1cc(C(=O)NCc2c(C)cc(C)[nH]c2=O)c(C)c2c1OC(C)([C@H]1CC[C@H](N(C)C)CC1)O2 (relative stereo) [Example 66, 2-[trans-4-(Dimethylamino)cyclohexyl]-N-[(4,6-dimethyl-2-oxo-1,2-dihydropyridin-3-yl)methyl]-2,4-dimethyl-7-vinyl-1,3-benzodioxole-5-carboxamide] |
| 23 | 13 | 18 | Cc1cc(C)c(CNC(=O)c2cc(-c3cnn(C)c3)c3c(c2C)OC(C)([C@H]2CC[C@H](N(C)C)CC2)O3)c(=O)[nH]1 (relative stereo) [Example 65, 2-[trans-4-(Dimethylamino)cyclohexyl]-N-[(4,6-dimethyl-2-oxo-1,2-dihydropyridin-3-yl)methyl]-2,4-dimethyl-7-(1-methylpyrazol-4-yl)-1,3-benzodioxole-5-carboxamide hydrochloride] |
| 21 | 11 | 26 | CCc1cc(C)[nH]c(=O)c1CNC(=O)c1cc(-c2cnn(C)c2)c2c(c1C)OC(C)([C@H]1CC[C@H](N(C)C)CC1)O2 (relative stereo) [Example 75, 2-[trans-4-(Dimethylamino)cyclohexyl]-N-[(4-ethyl-6-methyl-2-oxo-1,2-dihydropyridin-3-yl)methyl]-2,4-dimethyl-7-(1-methylpyrazol-4-yl)-1,3-benzodioxole-5-carboxamide hydrochloride] |
| 11 | 5.5 | 6.6 | Cc1cc(C)c(CNC(=O)c2cc(C3=CCOCC3)c3c(c2C)OC(C)([C@H]2CC[C@H](N(C)C)CC2)O3)c(=O)[nH]1 (relative stereo) [Example 62, 7-(3,6-Dihydro-2H-pyran-4-yl)-2-[trans-4-(dimethylamino)cyclohexyl]-N-[(4,6-dimethyl-2-oxo-1,2-dihydropyridin-3-yl)methyl]-2,4-dimethyl-1,3-benzodioxole-5-carboxamide] |
| 8 | 10 | 21 | CCN1CCN(c2ccc(-c3cc(C(=O)NCc4c(C)cc(C)[nH]c4=O)c(C)c4c3OC(C)([C@H]3CC[C@H](N(C)C)CC3)O4)cn2)CC1 (relative stereo) [Example 61, 2-[trans-4-(Dimethylamino)cyclohexyl]-N-[(4,6-dimethyl-2-oxo-1,2-dihydropyridin-3-yl)methyl]-7-[6-(4-ethylpiperazin-1-yl)-3-pyridyl]-2,4-dimethyl-1,3-benzodioxole-5-carboxamide] |
